Experiments:
[1] = tested on: HCT292 human lung cancer cells; experiment: HCT292 cell viability (crystal violet / ATPlite); assay type: cell-based; details: for IC50 / viability at 10 µM / viability at 50 µM / viability at 20 µM: Homo sapiens; for IC50: Table 4, assay not given, cited among cellular activity Tables 3-9 (HCT292); for % Viability / viability at 10 µM / viability at 50 µM / viability at 20 µM: HCT292 cells, relative to DMSO; for % Viability: 96 hours; for viability at 10 µM / viability at 50 µM / viability at 20 µM: 96 h
Procedure: Lastly, the biological activity of lead compounds was assessed in cancer cells lines determined to be sensitive to CBX inhibition. First, a cell line screening for CBX2 and CBX3 dependence/sensitivity was conducted using shRNAs. […] These cell lines were utilized to evaluate the potential cellular activity of a panel of CBX inhibitors (Tables 3-9).
Briefly, HCT292 cells were treated 24 hours after passage; the compounds in DMSO were added directly to their media. Initially, which cells caused cell death was checked by fixing and staining the cells with crystal violet 96-hours post treatment and then reading the absorbance using the Envision and comparing the signal to a DMSO control. This was done as a preliminary viability screen prior to the ATPlite assay to determine which compounds HCT292 cells were and H661 cells were not sensitive to. […] Thus, a cellular system to evaluate the activity of small molecule CBX inhibitors was established.

Human His6-CBX7 = Human His6-CBX7 (Homo sapiens (Human), UniProt O95931); experiment: CBX7 AlphaScreen assay (binding of CBX7 chromodomain to H3K27me3 peptide); details: for IC50: average, His6-CBX7 / biotinylated-H3K27me3, read-out: AVG CBX7 Alpha IC50
Sequence of Human His6-CBX7 (O95931 11-69): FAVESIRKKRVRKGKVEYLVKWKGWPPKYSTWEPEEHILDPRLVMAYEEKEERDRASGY
Text: A biochemical assay was developed based on nanoparticle AlphaScreen assay to monitor the binding of recombinant CBX chromodomain (CBX7) to a methylated peptide (H3K27me3).
The primary assay uses recombinant CBX chromodomain and synthetic, trimethylated H3 histone tail peptide. When CBX/histone tail-binding occurs, AlphaScreen beads are brought in close proximity, resulting in singlet molecular oxygen transfer and production of a luminescent signal. Assay positives inhibiting the binding interaction are therefore expected to prevent complex formation, diminishing signal intensity. The AlphaScreen technology features an anti-Stokes shift in detection: due to energy transfer between beads by singlet oxygen and internal chemical reactions within the acceptor bead, the emission wavelength is blue-shifted relative to the excitation wavelength, which is impossible in traditional fluorescent assays. The relatively long path length of 200 nm that singlet molecular oxygen can travel enables reporting on full protein complexes and not just single target binding. […] Neither the small molecules being tested nor the target protein, CBX7, need to be chemically, conformationally, or behaviorally altered by tethering them to a surface or reporter that may decrease physiological relevance and beget screening artifacts. The primary assay monitors binding of the chromodomain of CBX7 to a histone tail containing a trimethylated lysine at K27, the biologically relevant interaction through which PRC binds to chromatin to repress transcription. This is a robust proximity-based assay that utilizes AlphaScreen technology (PerkinElmer). The assay consists of His6-CBX7 bound to a Ni^++ acceptor bead and the biotinylated histone tail bound to a streptavadin donor bead. Upon CBX7/H3K27me3 binding, the steptavidin bead comes into proximity with the Ni^++ bead to luminesce upon light excitation ([…]; see below).
The protocol for the CBX7 AlphaScreen was as follows: a standard alpha buffer (50 mM HEPES, 150 mM NaCl, 0.1% w/v BSA, 0.01% w/v Tween20) at pH 8.0 and make up two stock solutions at 2× final concentration in the alpha buffer. Solution A contains Human His6-CBX7 is used with biotinylated-H3K27me3 (residues 20-34), at 100 nM and 50 nM respectively. Solution B contains 20 nM streptavidin donor beads and 20 nM nickel acceptor beads. For 384 well assay formats, 10 uL of solution A is added to each well of the assay plate and the plate is spun at 1000 rpm for 30 seconds. 100 nL of experimental compounds from stock plates are delivered by robotic pin transfer using a Janus Workstation (PerkinElmer), allowing the compounds to interact with CBX7 binding prior to assay measurement, followed by another spin and an incubation room temperature. Finally, 10 uL of solution B is added to each well, the plate is spun again and then incubated at room temperature. AlphaScreen measurements are performed on an Envision 2104 (PerkinElmer) utilizing the manufacturer's protocol that has the correct excitation and emission wavelengths, cutoff filters, delay time, etc. A crosstalk calculation is also done through the Envision software to correct for luminescence for adjacent wells while reading the plate. The signal is then normalized to DMSO control wells on the compound plate prior to creation of the IC50 curves.

CBX7 = CBX7 (Homo sapiens (Human), UniProt O95931); experiment: Isothermal titration calorimetry; assay type: binding; details: in words (FIG. 20)
Sequence of CBX7 (O95931 whole entry): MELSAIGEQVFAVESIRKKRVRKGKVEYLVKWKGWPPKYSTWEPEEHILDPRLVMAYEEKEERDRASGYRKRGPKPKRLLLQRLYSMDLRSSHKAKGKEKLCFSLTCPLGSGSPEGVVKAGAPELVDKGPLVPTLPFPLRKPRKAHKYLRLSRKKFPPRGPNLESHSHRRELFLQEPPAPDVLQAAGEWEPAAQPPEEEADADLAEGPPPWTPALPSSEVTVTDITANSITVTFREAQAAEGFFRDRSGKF
Text: A new series of compounds were designed and synthesized based on computational modeling of inhibitor compounds with the literature reported crystal structure of CBX.

| Compound | IC50 (Human His6-CBX7) [µM] | further results |
| --- | --- | --- |
| O=C(CC1S/C(=N/N=C/c2cccnc2)NC1=O)Nc1ccc(N2CCCC2)cc1 (centres unmarked) [ACV-14 (2)] | 10.2 | IC50 [1]: 115 µM |
| O=C(CC1S/C(=N/N=C/c2ccc(O)c(O)c2O)NC1=O)Nc1ccc(N2CCCC2)cc1 (centres unmarked) [ACV-17 (1), 2-(4-oxo-2-((2,3,4-trihydroxybenzylidene)hydrazono)thiazolidin-5-yl)-N-(4-(pyrrolidin-1-yl)phenyl) acetamide] | 69.7 | % Viability ([1]; 50 uM, listed as 1-258C): 33.0%; viability at 10 µM ([1]; 10 uM): 72.2% |
| O=C(CC1S/C(=N/N=C/c2ccc(O)c(O)c2O)NC1=O)Nc1ccc(N2CCCC2)cc1 (centres unmarked) [ACV-17 (2)] | 0.93 | % Viability ([1]; 50 uM, listed as 2-165): 58.8%; IC50 [1]: 0.334 µM |
| O=C(CC1S/C(=N/N=C/c2ccc(O)c(O)c2O)NC1=O)Nc1ccc(N2CCCC2)cc1 (centres unmarked) [ACV-17(CP)] | 1.74 | % Viability ([1]; 50 uM, listed as 258C (CP)): 20.3% |
| COC(=O)C1CSC(CC(=O)Nc2ccc(N3CCCC3)cc2)C(=O)N1 (centres unmarked) [ACV-22] |  | binding affinity by isothermal titration calorimetry (CBX7): further confirmed; binding affinity with CBX (Human His6-CBX7; in words (FIG. 9)): low micromolar |
| O=C(Cc1cnc(NC(=O)Nc2cccnc2)s1)Nc1ccc(N2CCCC2)cc1 [ACV-40, 2-(2-(3-(pyridin-3-yl)ureido)thiazol-5-yl)-N-(4-(pyrrolidin-1-yl)phenyl)acetamide] | 12.8 | viability at 10 µM ([1]; 10 uM): 99%; viability at 50 µM ([1]; 50 uM): 82.9%; IC50 [1]: 83.9 µM |
| CN(C)c1ccc(CCNC(=O)CC2S/C(=N/N=C/c3cccnc3)NC2=O)cc1 (centres unmarked) [ACV-42] | 155 | viability at 50 µM ([1]; 50 uM): 95.8%; IC50 [1]: 1000 µM |
| CN1CCN(CCNC(=O)CC2S/C(=N/N=C/c3ccc(O)c(O)c3O)NC2=O)CC1 (centres unmarked) [ACV-63 (CP)] | 5.31 | % Viability ([1]; 10 uM, listed as 2-195 (CP)): 34.9%; viability at 20 µM [1]: 41%; viability at 50 µM ([1]; 50 uM): 60.6% |
| CN1CCN(CCNC(=O)CC2S/C(=N/N=C/c3ccc(O)c(O)c3O)NC2=O)CC1 (centres unmarked) [ACV-63, N-(2-(4-methylpiperazin-1-yl)ethyl)-2-(4-oxo-2-((2,3,4-trihydroxybenzylidene)hydrazono)thiazolidin-5-yl)acetamide] | 0.183 | % Viability ([1]; 10 uM, listed as 2-195): 94.2%; % Viability ([1]; 50 uM, listed as 2-195): 43.5% |
| O=C(CC1SC(N/N=C/c2ccc(O)c(O)c2O)=NC1=O)Nc1ccc(N2CCCCC2)cc1 (centres unmarked) [ACV-78] | 0.225 |  |
| O=C(NCCN1CCCC1)c1ccc(-c2csc(N/N=C/c3cccnc3)n2)cc1 [ACV-79] | 3.01 |  |
| O=C(COCc1ccc(CN2CCCC2)cc1)N[C@H]1CCCN(Cc2cccnc2)C1=O [ACV-80] | 2.86e-05 |  |
| CN1CCN(CCNC(=O)Cc2cnc(NC(=O)Nc3cccnc3)s2)CC1 [ACV-81] | 104 |  |
| COc1ccc(CC(=O)Nc2ncc(CC(=O)NCCN3CCN(C)CC3)s2)c(OC)c1OC [ACV-82] | 50.8 |  |
| COc1ccc(CC(=O)Nc2nc(CC(=O)Nc3ccc(N4CCCC4)cc3)cs2)c(OC)c1OC [ACV-83] | 23.9 |  |
| O=C(CC12SC(CCN3CCOCC3)(NC1=O)C1C(=O)N(c3ccc(N4CCCC4)cc3)C(=O)C12)Nc1ccc(N2CCCC2)cc1 (centres unmarked) [ACV-84] | 7.26 |  |
| CN1CCN(CCNc2nc(CC(=O)Nc3ccc(N4CCCC4)cc3)cs2)CC1 [ACV-85] | 54.8 |  |

| Compound | IC50 (Human His6-CBX7) [µM] | further results |
| --- | --- | --- |
| O=C(CC1SC(N/N=C/c2ccc(O)c(O)c2O)=NC1=O)Nc1ccc(N2CCCCCC2)cc1 (centres unmarked) [ACV-86] | 11.8 |  |
| COC(=O)Cc1csc(N/N=C/c2ccc(O)c(O)c2O)n1 [ACV-87] | 7.26 |  |
| COc1ccc(NC(=O)Cc2csc(NCCN3CCN(C)CC3)n2)c(OC)c1 [ACV-88] | 246 |  |
| O=C(Nc1ccc(N2CCCC2)cc1)c1ccc(-c2csc(CCN3CCOCC3)n2)cc1 [ACV-89] | 12.9 | viability at 10 µM ([1]; 10 uM): 31.3%; viability at 20 µM [1]: 29%; viability at 50 µM ([1]; 50 uM): 28% |
| COC(=O)c1ccc2nc(-c3ccc(O)c(O)c3O)c(NCc3ccccc3)n2c1 [ACV-91] | 12 | viability at 10 µM ([1]; 10 uM): 33.5%; viability at 20 µM [1]: 30.5%; viability at 50 µM ([1]; 50 uM): 18% |
| O=C(N/N=C/c1ccc(N2CCCC2)cc1)c1ccc(-c2csc(NCCc3cccnc3)n2)cc1 [ACV-92] | 170 |  |
| COC(=O)Cc1cnc(NC(=O)c2ccc(CCN3CCCC3)cc2)s1 [ACV-93] | 440 |  |
| c1cn2c(NC3CCCCC3)c(-c3ccc4[nH]ncc4c3)nc2cn1 [ACV-94] | 123 |  |
| COc1ccc(CC(=O)Nc2nc3cc(C(=O)NCCN4CCN(C)CC4)ccc3s2)cc1OC [ACV-95] | 879 |  |
| O=C(Cc1ccc(O)c(O)c1)NCc1nc(CC(=O)Nc2ccc(N3CCCC3)cc2)cs1 [ACV-96] | 79.3 |  |
| O=C(c1ccc(-c2csc(NCCc3cccnc3)n2)cc1)N1CCC(N2CCCC2)CC1 [ACV-97] | 81.7 |  |
| CN1CCN(CCNC(=O)c2ccc(-c3csc(NCCc4cccnc4)n3)cc2)CC1 [ACV-98] | 121 |  |
| O=C(Nc1ccc(N2CCCC2)cc1)c1ccc(-c2csc(NCCc3cccnc3)n2)cc1 [ACV-99] | 16.4 |  |
| O=C(CC1SC(N2CCC(c3ccc(O)c(O)c3O)=N2)=NC1=O)Nc1ccc(N2CCCC2)cc1 (centres unmarked) [CBX-08, 2-(4-oxo-2-(3-(2,3,4-trihydroxyphenyl)-4,5-dihydro-1H-pyrazol-1-yl)-4,5-dihydrothiazol-5-yl)-N-(4-(pyrrolidin-1-yl)phenyl)acetamide] | 0.835 |  |
| CN1CCN(CCNC(=O)CC2SC(N3CCC(c4ccc(O)c(O)c4O)=N3)=NC2=O)CC1 (centres unmarked) [CBX-09, N-(2-(4-methylpiperazin-1-yl)ethyl)-2-(4-oxo-2-(3-(2,3,4-trihydroxyphenyl)-4,5-dihydro-1H-pyrazol-1-yl)-4,5-dihydrothiazol-5-yl)acetamide] | 53.4 |  |
| O=C(CC1S/C(=N\N=C\c2cccnc2)NC1=O)Nc1cccc(Cl)c1Cl (centres unmarked) [JQI-III-263-A] |  | activity in CBX AlphaScreen assay (Human His6-CBX7; cap scan of Scaffold 3, in words (FIG. 8)): improved activity |
